Data taken from patent US20190330529A1, “USE AND COMPOSITION OF BUFFER FORMULATION WITH MULTIPLE PH VALUES AND UREASE ACTIVITY INHIBITOR” (ECO-GEO BIO-TECHNOLOGY COMPANY LIMITED, priority 2018, published 2019).

What was measured:
[1] = biological target: T1, urease (U7752, Sigma-Aldrich) (Canavalia ensiformis, UniProt P07374); experiment: Inhibition of the activity of the urease in citric acid salt buffer solution (Berthelot, absorbance 625 nm); assay type: biochemical
T1 construct: purchased Sigma-Aldrich U7752
Method: (§1) 7.1 Control group: Control group: 20 μL of the buffer solution and 25 μL of 50 ppm urease were added and mixed in wells of a 96-well plate. After the mixture reacted at 37° C. for 5 minutes, 40 μL of 20 mM urea solution was added into the mixture. After the mixture reacted at 37° C. for 10 minutes, 55 μL of Berthelot reagent A and 60 μL of Berthelot reagent B were added into each well. The mixture was held in the dark at 37° C. for 30 minutes, and the absorbance was measured at 625 nm wavelength by the ELISA reader. Each sample was measured at least in triplicate.
as §1, with “7.2 Ascorbic acid groups: 10” for “7.1 Control group: Control group: 20”, “buffer solution, 10 μL of ascorbic acid” for “buffer”, “mixture to make the final concentrations of the ascorbic acid as 120 ppm, 240 ppm and 480 ppm, respectively.” for “mixture.”, “triplicate. The inhibition % of the activity of the urease=100−((the absorbance of the sample/the absorbance of the control group)×100).” for “triplicate.”
as §1, with “8.1” for “7.1”
as §1, with “8.2 Ascorbic acid groups: 10” for “7.1 Control group: Control group: 20”, “buffer solution, 10 μL of ascorbic acid” for “buffer”, “mixture to make the final concentrations of the ascorbic acid as 120 ppm, 240 ppm and 480 ppm, respectively.” for “mixture.”, “triplicate. The inhibition % of the activity of the urease=100−((the absorbance of the sample/the absorbance of the control group)×100).” for “triplicate.”
as §1, with “9.1” for “7.1”
as §1, with “9.2 Ascorbic acid groups: 10” for “7.1 Control group: Control group: 20”, “buffer solution, 10 μL of ascorbic acid” for “buffer”, “mixture to make the final concentrations of the ascorbic acid as 120 ppm, 240 ppm and 480 ppm, respectively.” for “mixture.”, “Each sample was measured at least in triplicate.” left out

[2] = biological target: T1, urease (U7752, Sigma-Aldrich); experiment: Inhibition of the activity of the urease in phosphate buffer solution (Berthelot, absorbance 625 nm); assay type: biochemical
Method: 1. Experiment of the Inhibition of the Activity of the Urease (in Phosphate Buffer Solution, pH 5.0)
1.1 Control group: 20 μL of the buffer solution and 25 μL of 50 ppm urease (U7752, Sigma-Aldrich) were added and mixed in wells of a 96-well plate. After the mixture reacted at 37° C. for 5 minutes, 40 μL of 20 mM urea solution was added into the mixture. After the mixture reacted at 37° C. for 10 minutes, 55 μL of Berthelot reagent A (prepared by mixing 5 g of phenol and 25 mg of sodium nitroprusside and diluting the mixture to 500 mL with purified water) and 60 μL of Berthelot reagent B (prepared by mixing 2.5 g of sodium hydroxide and 4.2 mL of sodium hypochlorite and diluting the mixture to 500 mL with purified water) were added into each well. The mixture was held in the dark at 37° C. for 30 minutes, and the absorbance was measured at 625 nm wavelength by an enzyme-linked immuno-sorbent assay (ELISA) reader. Each sample was measured at least in triplicate.
as §1, with “1.2 Ascorbic acid groups: 10” for “7.1 Control group: Control group: 20”, “buffer solution, 10 μL of ascorbic acid” for “buffer”, “mixture to make the final concentrations of the ascorbic acid as 120 ppm, 240 ppm and 480 ppm, respectively.” for “mixture.”, “triplicate. The inhibition % of the activity of the urease=100−((the absorbance of the sample/the absorbance of the control group)×100).” for “triplicate.”
2. Experiment of the Inhibition of the Activity of the Urease (in Phosphate Buffer Solution, pH 6.0)
as §1, with “2.1” for “7.1 Control group:”
as §1, with “2.2 Ascorbic acid groups: 10” for “7.1 Control group: Control group: 20”, “buffer solution, 10 μL of ascorbic acid” for “buffer”, “mixture to make the final concentrations of the ascorbic acid as 120 ppm, 240 ppm and 480 ppm, respectively.” for “mixture.”, “triplicate. The inhibition % of the activity of the urease=100−((the absorbance of the sample/the absorbance of the control group)×100).” for “triplicate.”
3. Experiment of the Inhibition of the Activity of the Urease (in Phosphate Buffer Solution, pH 6.8)
as §1, with “3.1” for “7.1 Control group:”, “triplicate. […]” for “triplicate.”

[3] = pH 5, read-out: inhibition % of the activity of the urease
[4] = pH 6, read-out: inhibition % of the activity of the urease
[5] = pH 6.8, read-out: inhibition % of the activity of the urease
[6] = pH 7, read-out: inhibition % of the activity of the urease
[7] = pH 7.3, read-out: inhibition % of the activity of the urease
[8] = pH 8, read-out: inhibition % of the activity of the urease

T1 sequence (P07374 whole entry, looked up): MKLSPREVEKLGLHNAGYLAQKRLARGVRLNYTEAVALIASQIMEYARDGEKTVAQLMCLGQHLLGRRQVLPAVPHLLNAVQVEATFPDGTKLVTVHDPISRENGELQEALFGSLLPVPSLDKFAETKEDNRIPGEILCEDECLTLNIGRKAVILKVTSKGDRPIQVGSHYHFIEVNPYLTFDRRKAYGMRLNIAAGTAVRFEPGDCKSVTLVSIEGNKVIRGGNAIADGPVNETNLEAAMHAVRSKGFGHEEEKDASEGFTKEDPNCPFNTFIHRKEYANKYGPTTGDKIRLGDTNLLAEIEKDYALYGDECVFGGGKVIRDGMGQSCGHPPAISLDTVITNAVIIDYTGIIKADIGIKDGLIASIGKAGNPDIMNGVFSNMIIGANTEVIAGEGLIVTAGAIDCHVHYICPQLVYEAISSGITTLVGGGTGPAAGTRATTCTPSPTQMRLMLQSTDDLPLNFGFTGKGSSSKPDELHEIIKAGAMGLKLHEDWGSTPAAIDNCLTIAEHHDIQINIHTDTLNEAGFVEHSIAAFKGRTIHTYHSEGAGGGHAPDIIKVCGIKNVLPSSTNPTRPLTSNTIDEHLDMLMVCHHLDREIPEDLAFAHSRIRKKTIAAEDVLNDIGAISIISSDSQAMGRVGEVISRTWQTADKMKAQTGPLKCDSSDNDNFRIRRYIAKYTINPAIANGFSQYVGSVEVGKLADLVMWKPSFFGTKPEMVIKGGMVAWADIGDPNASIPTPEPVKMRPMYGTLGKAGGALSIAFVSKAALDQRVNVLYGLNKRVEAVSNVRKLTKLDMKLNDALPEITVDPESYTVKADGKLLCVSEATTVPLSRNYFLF

Compound `O=C1O[C@H]([C@@H](O)CO)C(O)=C1O` [ascorbic acid] has an inhibition at 120 ppm ([1]; pH 6.8, read-out: inhibition % of the activity of the urease, 120 ppm ascorbic acid, citrate buffer solution, pH 6.8) of -6.8%, an inhibition at 240 ppm ([1]; pH 6.8, read-out: inhibition % of the activity of the urease, 240 ppm ascorbic acid, citrate buffer solution, pH 6.8) of 66% and an inhibition at 480 ppm ([1]; pH 6.8, read-out: inhibition % of the activity of the urease, 480 ppm ascorbic acid, citrate buffer solution, pH 6.8) of 93.5%. For the same compound, the inhibition at 480 ppm ([1]; pH 6.8, read-out: inhibition of the urea hydrolysis, 480 ppm ascorbic acid, citrate buffer solution, pH 6.8-7.0) was > 90%, the inhibition at 480 ppm ([1]; pH 6.8, read-out: inhibition of the urea hydrolysis, 480 ppm ascorbic acid, citrate buffer solution, pH 6.8-7.3) was > 50% and the inhibition at 120 ppm ([1]; pH 7, read-out: inhibition % of the activity of the urease, 120 ppm ascorbic acid, citrate buffer solution, pH 7.0) was -25.2%. The inhibition at 240 ppm ([1]; pH 7, read-out: inhibition % of the activity of the urease, 240 ppm ascorbic acid, citrate buffer solution, pH 7.0) was 32.6%, the inhibition at 480 ppm ([1]; pH 7, read-out: inhibition % of the activity of the urease, 480 ppm ascorbic acid, citrate buffer solution, pH 7.0) was 93.6% and the inhibition at 120 ppm ([1]; pH 7.3, read-out: inhibition % of the activity of the urease, 120 ppm ascorbic acid, citrate buffer solution, pH 7.3) was -19.7%. For the same compound, the inhibition at 240 ppm ([1]; pH 7.3, read-out: inhibition % of the activity of the urease, 240 ppm ascorbic acid, citrate buffer solution, pH 7.3) was 27.1%, the inhibition at 480 ppm ([1]; pH 7.3, read-out: inhibition % of the activity of the urease, 480 ppm ascorbic acid, citrate buffer solution, pH 7.3) was 75.3% and the “inhibitory effect on the urease hydrolysis (in words)” value ([2]; environment with pH 5-8, optical density versus control group) was “has the inhibitory effect on the urease hydrolysis”. The “inhibitory effect on the urease hydrolysis” value ([2]; environment with pH 6.8-7.3, summary statement, buffer and concentration not stated) was “over 90%”, the inhibition at 120 ppm [2, 3] was 25.7% and the inhibition at 240 ppm [2, 3] was 33.1%. For the same compound, the inhibition at 480 ppm [2, 3] was 40.5%, the inhibition at 120 ppm [2, 4] was 26.7% and the inhibition at 240 ppm [2, 4] was 49%. For the same compound, the inhibition at 480 ppm [2, 4] was 52.9%, the inhibition at 480 ppm ([2]; pH 6, read-out: inhibition of the urea hydrolysis) was > 50% and the inhibition at 120 ppm [2, 5] was 2%. The inhibition at 240 ppm [2, 5] was 37.3%, the inhibition at 480 ppm [2, 5] was 96.5% and the inhibition at 480 ppm ([2]; pH 6.8, read-out: inhibition of the urea hydrolysis) was > 93%. It also gave an inhibition at 120 ppm [2, 6] of 16.1%, an inhibition at 240 ppm [2, 6] of 59.4% and an inhibition at 480 ppm [2, 6] of 97.2%. The inhibition at 120 ppm [2, 7] was 11.3%, the inhibition at 240 ppm [2, 7] was 34.6% and the inhibition at 480 ppm [2, 7] was 93.6%. The inhibition at 120 ppm [2, 8] was 8.1%, the inhibition at 240 ppm [2, 8] was 33.3% and the inhibition at 480 ppm [2, 8] was 77.7%.
